Measurements as given in patent US20210356472A1, “METHODS AND COMPOSITIONS FOR DETECTION AND VISUALIZATION OF OXIDATIVE STRESS-INDUCED CARBONYLATION IN CELLS” (The Research Foundation for The State University of New York, priority 2020, published 2021).

Columns and labels:
[1] = Absorption and emission spectra of hydrazide fluorophores and their hydrazones with propanal; format: physicochemical; conditions: 10 mM PB, pH 7 containing 0.5% DMSO (v/v); for Hydrazide + propanal Abs max / Hydrazide + propanal Em max: corresponding hydrazone with propanal
Description: FIGS. 15A-15F show absorption (top) and emission (bottom) spectra of (FIGS. 15A, 15B) DCCH, (FIGS. 15C, 15D) BODIPYH, and (FIGS. 15E, 15F) TxRH and their corresponding hydrazones with propanal in 10 mM PB, pH 7 containing 0.5% DMSO (v/v). The excitation wavelengths used for obtaining the emission spectra are as follows: DCCH (ex: 405 nm), BODIPYH (ex: 450 nm), TxRH (543 nm). The arrow in the absorption spectra denotes the wavelength of the excitation laser used in the microscopy experiments.

A549 cells = assay: Detection of carbonylation in live cells with hydrazide fluorophores; format: cell-based
Description: At the end of the incubation period with the OSA or vehicle, 1 μL of 2 mM fluorophore (final concentrations: fluorophore=10 μM; DMSO=0.5%, v/v) is added to one corner of each well, taking care not to touch the bottom of the well with the pipet tip, and mixed well, by gently moving the chambered coverglass in a circular motion (clockwise as well as counter-clockwise). The coverglass is then returned to the cell culture incubator and incubated for 30-45 min. The difference in fluorescence between the control and the sample may be affected by the time of incubation with the fluorophore and the cell line. The incubation time is adjusted based on the cell line and oxidant used. The medium is discarded and 500 μL fresh medium added to each well. The coverglass is returned to the cell culture incubator for 3 min. The washing step is repeated two more times. The final wash medium is discarded, and 200 μL of fresh medium added, and the cells imaged by, e.g., confocal microscopy.
A549 cells were treated with vehicle (0.1% DMSO, v/v) or 100 μM menadione for 1 h, followed by 10 μM DCCH, BODIPYH, TxRH or TFCH for 30 min. The medium was discarded, and fresh medium was added to the cells and allowed to incubate for 5 min. After an additional round of medium change, the cells were imaged live using a confocal laser scanning microscope.
FIGS. 9A-9C show quantitative analysis of carbonyls in live cells in high throughput platform: A549 cells grown in standard media (control) or serum free media (serum starved) for ˜24 h were allowed to react with 10 μM hydrazide fluorophores for 1 h. Cells were washed and the emission of respective samples were recorded. The excitation (ex) and emission (em) wavelengths used are as follows: (FIG. 9A) DCCH (ex: 405 nm; em: 475 nm); (FIG. 9B) BODIPYH (ex: 488 nm; em: 530 nm); (FIG. 9C) TxRH (ex: 543 nm; em: 620 nm). Fluorescence in each sample was normalized to cell density. The graphs represent fluorescence of the serum starved samples relative to the control samples.
The cells were washed and imaged live using a confocal microscope. […]

lung cancer (A549) cells = assay: Cellular influx and efflux of TFCH in live A549 cells; format: cell-based
Description: (§1) Oxidized BSA was used as a model carbonylated biomolecule and TFCH's ability to detect it in an isolated system was tested. […] Next, the compatibility of TFCH for cell-based assays was established using lung cancer (A549) cells as a model cell line. TFCH's influx and efflux were achieved readily (<5 min) (FIGS. 21D and 21E). […] Importantly, given the turn-up property of the fluorophore, it was possible to identify carbonyls in live cells in the presence of unreacted fluorophores by a one-step high content screening (HCS)-compatible assay. Low concentration of the dye (2 µM) can detect carbonyls induced by serum starvation in live cells within 30 min (FIG. 22C). This single-step (no wash) assay format may be particularly suitable for screening molecules that have a propensity to induce cell detachment. Alternatively, excess fluorophore can be removed and the cells can be either imaged live (FIGS. 21D and 21E) or can be fixed and preserved for analysis at a later time Indeed, a similar spatial distribution and increase in carbonylation due to serum starvation was detected in both live (FIGS. 5, 19B) and fixed cells (fixed after fluorescent labeling in live cells). […] See also, (Vemula, Ni, & Fedorova, 2015).
(§2) FIGS. 21A-21B, Limit of detection (LOD) of TFCZ (hydrazone of TFCH and propanal) in A549 cell lysate. […] Emission spectra of the lysates were recorded by exciting the samples at 372 nm.

[2] = Photochemical comparison of TFCH with BzCH; format: physicochemical
[3] = Reaction of TFCH with biomolecule ketones, cell-free systems versus living cells
From the text: It is believed that, in vivo, small molecules such as amino acids are involved in catalysis of the reaction.

oxidized BSA = oxidized BSA (Bos taurus, UniProt P02769); assay: Fluorescent labelling of oxidized BSA (SDS-PAGE); format: biochemical; conditions: isolated system, oxidized BSA as model carbonylated biomolecule
oxidized BSA, sequence (P02769 25-607): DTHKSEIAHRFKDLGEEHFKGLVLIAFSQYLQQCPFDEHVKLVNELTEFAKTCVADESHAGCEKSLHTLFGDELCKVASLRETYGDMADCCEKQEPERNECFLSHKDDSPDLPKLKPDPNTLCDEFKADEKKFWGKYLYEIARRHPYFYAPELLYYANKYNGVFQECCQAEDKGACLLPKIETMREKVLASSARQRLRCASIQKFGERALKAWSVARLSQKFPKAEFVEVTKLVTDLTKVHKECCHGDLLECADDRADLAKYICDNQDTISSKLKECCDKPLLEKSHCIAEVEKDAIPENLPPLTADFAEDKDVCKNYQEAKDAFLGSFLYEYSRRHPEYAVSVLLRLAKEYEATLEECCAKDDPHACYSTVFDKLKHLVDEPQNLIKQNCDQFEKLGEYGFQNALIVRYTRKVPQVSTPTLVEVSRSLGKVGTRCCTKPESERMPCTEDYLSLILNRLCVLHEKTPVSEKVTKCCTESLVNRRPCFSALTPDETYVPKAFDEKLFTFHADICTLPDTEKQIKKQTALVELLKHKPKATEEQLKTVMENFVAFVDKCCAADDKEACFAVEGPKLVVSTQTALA
Description: as §1, §2

[4] = Fluorescence quantum yield; format: physicochemical; conditions: in water; 'believed to have'
From the text: The fluorescence “quantum yield” (φ) is the ratio of the number of photons emitted to the number absorbed. The term fluorescence quantum yield (φ) is a measure of the efficiency of photon emission through fluorescence, which is the loss of energy by a substance that has absorbed light via emission of a photon. In other words, the fluorescence quantum yield gives the probability of the excited state being deactivated by fluorescence rather than by another, non-radiative mechanism such as internal conversion or vibrational relaxation (non-radiative loss of energy as heat to the surroundings). The fluorescence intensity (F) is proportional to the amount of light absorbed, F=φ(Io-I), where lo is the intensity of the incident light and l is the intensity transmitted. […] When the concentration of the fluorescent compound is low, the fluorescence intensity is given by the equation: […].
TFCH is believed to have a quantum yield of >0.1 in water. […] “Solvent effect on absolute fluorescence quantum yield of rhodamine 6G determined using transient thermal lens technique.” Modern physics letters B 13, no. […] “Fluorescence lifetime of acridine in water-organic solvent mixtures.” Bulletin of the Chemical Society of Japan 42, no. […]

Compound: NNS(=O)(=O)c1ccc(C2=c3cc4c5c(c3Oc3c2cc2c6c3CCCN6CCC2)CCC[N+]=5CCC4)c(S(=O)(=O)[O-])c1 [TxRH]
- Hydrazide + propanal Abs max [1]: 589 nm
- Hydrazide + propanal Em max [1]: 607 nm
- Hydrazide Abs max [1]: 589 nm
- Hydrazide Em max [1]: 607 nm
- suitability as optical probe for carbonylation in live cells (A549 cells): found suitable as optical probes for carbonylation in live cells

Compound: Cc1cc(C)n2c1C=C1C=CC(CCC(=O)NN)=[N+]1[B-]2(F)F [BODIPYH]
- Hydrazide + propanal Abs max [1]: 503 nm
- Hydrazide + propanal Em max [1]: 510 nm
- Hydrazide Abs max [1]: 503 nm
- Hydrazide Em max [1]: 510 nm
- suitability as optical probe for carbonylation in live cells (A549 cells): found suitable as optical probes for carbonylation in live cells

Compound: NNc1ccc2c(C(F)(F)F)cc(=O)oc2c1 [TFCH, 4-Trifluoromethyl-7-hydrazinyl-2H-chromen-2-one]
- influx and efflux time (lung cancer (A549) cells): < 5 min
- photostability compared with BzCH [2]: more photostable than BzCH
- absorption at 405 nm compared with BzCH ([2]; 405 nm): higher absorption at 405 nm than the BzCH
- reaction with biomolecule ketones in cell-free systems relative to living cells [3]: eight hundred times slower
- labelling of oxidized BSA (oxidized BSA): able to fluorescently label oxidized BSA and form a stable conjugate
- quantum yield [4]: > 0.1

Compound: CCN(CC)c1ccc2cc(C(=O)NN)c(=O)oc2c1 [DCCH, 7-(diethylamino)coumarin-3-carbohydrazide]
- Hydrazide + propanal Abs max [1]: 439 nm
- Hydrazide + propanal Em max [1]: 481 nm
- Hydrazide Abs max [1]: 429 nm
- Hydrazide Em max [1]: 479 nm
- suitability as optical probe for carbonylation in live cells (A549 cells): found suitable as optical probes for carbonylation in live cells
